Reference: ChEMBL document CHEMBL1667758, “Synthesis and biological activity of novel inhibitors of topoisomerase I: 2-aryl-substituted 2-bis-1H-benzimidazoles” (Eur J Med Chem, 2011)
Active and inactive are the calls of the source. No cut-off for these calls is given here.

Columns and labels:
HeLa [1] = experiment: cells; settings: Homo sapiens, 72 h
Description: Cytotoxicity against human HeLa cells after 72 hrs by MTT assay

[2] = Lipophilicity, log P of the compound; type: physicochemical; settings: octanol/water
Homo sapiens [3] = organism: Homo sapiens; experiment: Inhibition of human purified topoisomerase 1b-mediated relaxation of supercoiled pBS (SK+) DNA at 50 uM after 30 mins by agarose gel electrophoresis
Homo sapiens [4] = organism: Homo sapiens; experiment: Inhibition of human purified topoisomerase 1b-mediated relaxation of supercoiled pBS (SK+) DNA at 75 uM after 30 mins by agarose gel electrophoresis
[5] = Cytotoxicity against human U87 cells after 72 hrs by MTT assay; type: functional, cell-based, U-87MG ATCC; settings: U-87 MG
Calf thymus DNA [6] = experiment: Binding affinity to calf thymus DNA assessed as hypochromicity at DNA/drug ratio 4 after 15 mins by UV-vis spectrophotometer analysis; type: nucleic-acid assay; settings: Bos taurus
MCF7 [7] = experiment: cells; settings: Homo sapiens, MCF7, 72 h
Description: Cytotoxicity against human MCF7 cells after 72 hrs by MTT assay

HeLa [8] = experiment: Ratio of compound IC50 to Hoechst 33342 IC50 for human HeLa cells; type: functional
Calf thymus DNA [9] = experiment: Binding affinity to calf thymus DNA after 5 mins by fluorescence assay; type: nucleic-acid assay; settings: Bos taurus
MCF7 [10] = experiment: Ratio of compound IC50 to Hoechst 33342 IC50 for human MCF7 cells; type: functional
HeLa [11] = experiment: Ratio of compound IC50 to camptothecin IC50 for human HeLa cells; type: functional
Homo sapiens [12] = organism: Homo sapiens; experiment: Inhibition of human purified topoisomerase 1b-mediated relaxation of supercoiled pBS (SK+) DNA at 25 uM after 30 mins by agarose gel electrophoresis
[13] = Ratio of compound IC50 to Hoechst 33342 IC50 for human U87 cells; type: functional, U-87MG ATCC
Homo sapiens [14] = organism: Homo sapiens; experiment: Inhibition of human purified topoisomerase 1b-mediated relaxation of supercoiled pBS (SK+) DNA at 10 uM after 30 mins by agarose gel electrophoresis

SMILES | IC50 (HeLa [1]) | logP [2] | inhibition (Homo sapiens [3]) | inhibition (Homo sapiens [4]) | IC50 [5] | Activity (Calf thymus DNA [6]) | IC50 (MCF7 [7]) | Ratio IC50 (HeLa [8]) | Activity (Calf thymus DNA [9]) | Ratio IC50 (MCF7 [10]) | Ratio IC50 (HeLa [11]) | Activity (Homo sapiens [12]) | Ratio IC50 [13] | inhibition (Homo sapiens [14])
COc1cc(-c2nc3ccc(-c4nc5ccc(N6CCN(C)CC6)cc5[nH]4)cc3[nH]2)cc(OC)c1OC | 29300 nM | 3.36 | 90% | 90% | > 100000 nM | 27% | 16800 nM | – | – | – | – | – | – | –
CCOc1ccc(-c2nc3cc(-c4nc5cc(N6CCN(C)CC6)ccc5[nH]4)ccc3[nH]2)cc1 | 300 nM | 3.95 | – | – | 4200 nM | 38% | 500 nM | 2 | Active | – | – | – | – | –
CN1CCN(c2ccc3nc(-c4ccc5nc(-c6ccc(Cl)cc6Cl)[nH]c5c4)[nH]c3c2)CC1 | 600 nM | 4.85 | – | – | 1500 nM | 28% | 1300 nM | – | Active | 2.6 | 3 | Active | 2.8 | –
COc1ccc(-c2nc3cc(-c4nc5cc(N6CCN(C)CC6)ccc5[nH]4)ccc3[nH]2)cc1OC | 3400 nM | 3.48 | 90% | 90% | > 100000 nM | 1% | 5300 nM | – | – | – | – | – | – | –
CN1CCN(c2ccc3nc(-c4ccc5nc(-c6ccc(F)cc6F)[nH]c5c4)[nH]c3c2)CC1 | 1500 nM | 4.05 | – | – | 5500 nM | -20% | 5500 nM | – | Active | – | – | Active | – | –
CC[C@@]1(O)C(=O)OCc2c1cc1n(c2=O)Cc2cc3ccccc3nc2-1 [CAMPTOTHECIN] | 1500 nM | – | – | – | 500 nM | – | 650 nM | – | – | – | – | – | – | 80%
